Experimental data reported in EPA's ToxValDB 9.5.

System: Rattus norvegicus
Details: short-term, duration: 28 days, oral, gavage, Sprague-Dawley

## O=C(O)C(F)(F)C(F)(F)C(F)(F)C(F)(F)C(F)(F)F [Perfluorohexanoic acid]
F, Clinical chemistry_Alanine aminotransferase
  LOEL: 500 mg/kg-day
F, Clinical chemistry_Albumin
  NOEL: 1000 mg/kg-day
F, Clinical chemistry_Albumin/globulin ratio
  LOEL: 1000 mg/kg-day
F, Clinical chemistry_Alkaline phosphatase
  LOEL: 1000 mg/kg-day
F, Clinical chemistry_Aspartate aminotransferase
  LOEL: 500 mg/kg-day
F, Clinical chemistry_Cholesterol
  NOEL: 1000 mg/kg-day
F, Clinical chemistry_Creatinine kinase
  NOEL: 1000 mg/kg-day
F, Clinical chemistry_Direct bilirubin
  NOEL: 1000 mg/kg-day
F, Clinical chemistry_Free thyroxine
  NOEL: 1000 mg/kg-day
F, Clinical chemistry_Globulin
  LOEL: 1000 mg/kg-day
F, Clinical chemistry_Indirect bilirubin
  NOEL: 1000 mg/kg-day
F, Clinical chemistry_Sorbitol dehydrogenase
  NOEL: 1000 mg/kg-day
F, Clinical chemistry_Testosterone
  NOEL: 1000 mg/kg-day
F, Clinical chemistry_Thyroid stimulating hormone
  NOEL: 1000 mg/kg-day
F, Clinical chemistry_Total bile acids
  LOEL: 1000 mg/kg-day
F, Clinical chemistry_Total protein
  LOEL: 1000 mg/kg-day
F, Clinical chemistry_Total thyroxine
  NOEL: 1000 mg/kg-day
F, Clinical chemistry_Total triiodothyronine
  NOEL: 1000 mg/kg-day
F, Clinical chemistry_Triglycerides
  NOEL: 1000 mg/kg-day
F, Gene expression_Acox1
  LOEL: 500 mg/kg-day
F, Gene expression_Cyp2b1
  LOEL: 62.6 mg/kg-day
F, Gene expression_Cyp2b2
  LOEL: 62.6 mg/kg-day
F, Gene expression_Cyp4a1
  LOEL: 500 mg/kg-day
F, Hematology_Erythrocytes
  LOEL: 250 mg/kg-day
F, Hematology_Hematocrit
  LOEL: 250 mg/kg-day
F, Hematology_Hemoglobin
  LOEL: 250 mg/kg-day
F, Hematology_Mean corpuscular hemoglobin concentration
  LOEL: 1000 mg/kg-day
F, Hematology_Mean corpuscular volume
  LOEL: 500 mg/kg-day
F, Hematology_Platelets
  LOEL: 1000 mg/kg-day
F, Hematology_Reticulocytes
  LOEL: 500 mg/kg-day
F, Nonneoplastic effects_Bone marrow - Hypocellularity
  NOEL: 1000 mg/kg-day
F, Nonneoplastic effects_Forestomach - Epithelium, hyperplasia
  NOEL: 1000 mg/kg-day
F, Nonneoplastic effects_Forestomach - Inflammation, chronic active
  NOEL: 1000 mg/kg-day
F, Nonneoplastic effects_Kidney - Nephropathy, chronic progressive
  LOEL: 1000 mg/kg-day
F, Nonneoplastic effects_Liver - Hepatocyte, Necrosis
  NOEL: 1000 mg/kg-day
F, Nonneoplastic effects_Liver - Hepatocyte, cytoplasmic alteration
  LOEL: 1000 mg/kg-day
F, Nonneoplastic effects_Liver - Hepatocyte, hypertrophy
  LOEL: 1000 mg/kg-day
F, Nonneoplastic effects_Liver - Hepatocyte, vacuolization cytoplasmic
  NOEL: 1000 mg/kg-day
F, Nonneoplastic effects_Lymph nodes - Mandibular, atrophy
  NOEL: 1000 mg/kg-day
F, Nonneoplastic effects_Lymph nodes - Mesenteric, atrophy
  NOEL: 1000 mg/kg-day
F, Nonneoplastic effects_Nose - Olfactory epithelium, degeneration
  LOEL: 250 mg/kg-day
F, Nonneoplastic effects_Nose - Olfactory epithelium, hyperplasia
  LOEL: 250 mg/kg-day
F, Nonneoplastic effects_Nose - Olfactory epithelium, inflammation, suppurative
  LOEL: 500 mg/kg-day
F, Nonneoplastic effects_Nose - Respiratory epithelium, hyperplasia
  NOEL: 1000 mg/kg-day
F, Nonneoplastic effects_Nose - Respiratory epithelium, inflammation, chronic active
  NOEL: 1000 mg/kg-day
F, Nonneoplastic effects_Spleen - Atrophy
  NOEL: 1000 mg/kg-day
F, Nonneoplastic effects_Spleen - Extramedullary hematopoiesis, increased
  LOEL: 1000 mg/kg-day
F, Nonneoplastic effects_Thymus - Atrophy
  NOEL: 1000 mg/kg-day
F, Nonneoplastic effects_Thymus - Lymphocyte, apoptosis
  NOEL: 1000 mg/kg-day
F, Nonneoplastic effects_Thyroid gland - Follicular cell hypertrophy
  NOEL: 1000 mg/kg-day
F, Organ weights_Liver - Absolute
  LOEL: 500 mg/kg-day
F, Organ weights_Liver - Relative
  LOEL: 500 mg/kg-day
F, Organ weights_R. adrenal gland - Absolute
  NOEL: 1000 mg/kg-day
F, Organ weights_R. adrenal gland - Relative
  NOEL: 1000 mg/kg-day
F, Organ weights_R. kidney - Absolute
  LOEL: 1000 mg/kg-day
F, Organ weights_R. kidney - Relative
  LOEL: 1000 mg/kg-day
F, Organ weights_Spleen - Absolute
  NOEL: 1000 mg/kg-day
F, Organ weights_Spleen - Relative
  NOEL: 1000 mg/kg-day
F, Organ weights_Thymus - Absolute
  NOEL: 1000 mg/kg-day
F, Organ weights_Thymus - Relative
  NOEL: 1000 mg/kg-day
F, Organ weights_Thyroid gland - Absolute
  NOEL: 1000 mg/kg-day
F, Organ weights_Thyroid gland - Relative
  NOEL: 1000 mg/kg-day
F, Survival rates
  NOEL: 1000 mg/kg-day
F, body weight
  NOEL: 1000 mg/kg-day
M, Clinical chemistry_Alanine aminotransferase
  LOEL: 500 mg/kg-day
M, Clinical chemistry_Albumin
  LOEL: 125 mg/kg-day
M, Clinical chemistry_Albumin/globulin ratio
  LOEL: 250 mg/kg-day
M, Clinical chemistry_Alkaline phosphatase
  LOEL: 500 mg/kg-day
M, Clinical chemistry_Aspartate aminotransferase
  LOEL: 500 mg/kg-day
M, Clinical chemistry_Cholesterol
  LOEL: 62.6 mg/kg-day
M, Clinical chemistry_Creatinine kinase
  NOEL: 1000 mg/kg-day
M, Clinical chemistry_Direct bilirubin
  NOEL: 1000 mg/kg-day
M, Clinical chemistry_Free thyroxine
  LOEL: 62.6 mg/kg-day
M, Clinical chemistry_Globulin
  LOEL: 125 mg/kg-day
M, Clinical chemistry_Sorbitol dehydrogenase
  LOEL: 1000 mg/kg-day
M, Clinical chemistry_Testosterone
  NOEL: 1000 mg/kg-day
M, Clinical chemistry_Thyroid stimulating hormone
  NOEL: 1000 mg/kg-day
M, Clinical chemistry_Total bile acids
  LOEL: 1000 mg/kg-day
M, Clinical chemistry_Total protein
  LOEL: 250 mg/kg-day
M, Clinical chemistry_Total thyroxine
  LOEL: 62.6 mg/kg-day
M, Clinical chemistry_Total_triiodothyronine
  LOEL: 62.6 mg/kg-day
M, Clinical chemistry_Triglycerides
  NOEL: 1000 mg/kg-day
M, Gene expression_Acox1
  LOEL: 500 mg/kg-day
M, Gene expression_Acyl-CoA oxidase
  LOEL: 250 mg/kg-day
M, Gene expression_Cyp2b1
  LOEL: 62.6 mg/kg-day
M, Gene expression_Cyp2b2
  LOEL: 62.6 mg/kg-day
M, Gene expression_Cyp4a1
  LOEL: 62.6 mg/kg-day
M, Hematology_Erythrocytes
  LOEL: 62.6 mg/kg-day
M, Hematology_Hematocrit
  LOEL: 62.6 mg/kg-day
M, Hematology_Hemoglobin
  LOEL: 62.6 mg/kg-day
M, Hematology_Mean corpuscular hemoglobin concentration
  LOEL: 1000 mg/kg-day
M, Hematology_Mean corpuscular volume
  LOEL: 250 mg/kg-day
M, Hematology_Platelets
  LOEL: 500 mg/kg-day
M, Hematology_Reticulocytes
  LOEL: 500 mg/kg-day
M, Nonneoplastic effects_Bone marrow - Hypocellularity
  NOEL: 1000 mg/kg-day
M, Nonneoplastic effects_Epididymis - Duct, exfoliated germ cell
  NOEL: 1000 mg/kg-day
M, Nonneoplastic effects_Epididymis - Epithelium, apoptosis
  NOEL: 1000 mg/kg-day
M, Nonneoplastic effects_Epididymis - Hypospermia
  NOEL: 1000 mg/kg-day
M, Nonneoplastic effects_Forestomach - Epithelium, hyperplasia
  NOEL: 1000 mg/kg-day
M, Nonneoplastic effects_Forestomach - Inflammation, chronic active
  NOEL: 1000 mg/kg-day
M, Nonneoplastic effects_Kidney - Nephropathy, chronic progressive
  NOEL: 1000 mg/kg-day
M, Nonneoplastic effects_Liver - Hepatocyte, Necrosis
  NOEL: 1000 mg/kg-day
M, Nonneoplastic effects_Liver - Hepatocyte, cytoplasmic alteration
  LOEL: 1000 mg/kg-day
M, Nonneoplastic effects_Liver - Hepatocyte, hypertrophy
  LOEL: 500 mg/kg-day
M, Nonneoplastic effects_Liver - Hepatocyte, vacuolization cytoplasmic
  NOEL: 1000 mg/kg-day
M, Nonneoplastic effects_Lymph nodes - Mandibular, atrophy
  NOEL: 1000 mg/kg-day
M, Nonneoplastic effects_Lymph nodes - Mesenteric, atrophy
  NOEL: 1000 mg/kg-day
M, Nonneoplastic effects_Nose - Olfactory epithelium, degeneration
  LOEL: 250 mg/kg-day
M, Nonneoplastic effects_Nose - Olfactory epithelium, hyperplasia
  LOEL: 250 mg/kg-day
M, Nonneoplastic effects_Nose - Olfactory epithelium, inflammation, suppurative
  LOEL: 1000 mg/kg-day
M, Nonneoplastic effects_Nose - Respiratory epithelium, hyperplasia
  NOEL: 1000 mg/kg-day
M, Nonneoplastic effects_Nose - Respiratory epithelium, inflammation, chronic active
  NOEL: 1000 mg/kg-day
M, Nonneoplastic effects_Spleen - Atrophy
  NOEL: 1000 mg/kg-day
M, Nonneoplastic effects_Spleen - Extramedullary hematopoiesis, increased
  LOEL: 500 mg/kg-day
M, Nonneoplastic effects_Testes - Germinal epithelium, degeneration
  NOEL: 1000 mg/kg-day
M, Nonneoplastic effects_Testes - Interstitial cell, atrophy
  NOEL: 1000 mg/kg-day
M, Nonneoplastic effects_Testes - Seminiferous tubule, spermatid retention
  NOEL: 1000 mg/kg-day
M, Nonneoplastic effects_Thymus - Atrophy
  NOEL: 1000 mg/kg-day
M, Nonneoplastic effects_Thymus - Lymphocyte, apoptosis
  NOEL: 1000 mg/kg-day
M, Nonneoplastic effects_Thyroid gland - Follicular cell hypertrophy
  NOEL: 1000 mg/kg-day
M, Organ weights_Liver - Absolute
  LOEL: 500 mg/kg-day
M, Organ weights_Liver - Relative
  LOEL: 250 mg/kg-day
M, Organ weights_R. adrenal gland - Absolute
  NOEL: 1000 mg/kg-day
M, Organ weights_R. adrenal gland - Relative
  NOEL: 1000 mg/kg-day
M, Organ weights_R. kidney - Absolute
  NOEL: 1000 mg/kg-day
M, Organ weights_R. kidney - Relative
  LOEL: 500 mg/kg-day
M, Organ weights_R. testis - Absolute
  NOEL: 1000 mg/kg-day
M, Organ weights_Spleen - Absolute
  NOEL: 1000 mg/kg-day
M, Organ weights_Spleen - Relative
  NOEL: 1000 mg/kg-day
M, Organ weights_Thymus - Absolute
  LOEL: 1000 mg/kg-day
M, Organ weights_Thymus - Relative
  NOEL: 1000 mg/kg-day
M, Organ weights_Thyroid gland - Absolute
  NOEL: 1000 mg/kg-day
M, Organ weights_Thyroid gland - Relative
  NOEL: 1000 mg/kg-day
M, Reproductive toxicity_Altered sperm parameters
  LOEL: 1000 mg/kg-day
M, Survival rates
  NOEL: 1000 mg/kg-day
M, body weight
  LOEL: 1000 mg/kg-day
